Assay results from patent US10730851B2, “Polymorph of triaryldimethylpiperazine dihydrochloride and preparation method and application thereof” (priority 2016, dated 2020).
Counter-ions that a name gives are not always drawn.

Key:
[1] = Stability test: physical stability by XRPD under four environmental conditions; assay type: physicochemical; details: for Crystal form, after nitrogen purging at 60° C. for 2 h / Crystal form, after 40° C./75% RH for one week / Crystal form, after drying at 60 ° C. overnight / Crystal form, after nitrogen purging overnight at room: XRPD; for Crystal form, after nitrogen purging at 60° C. for 2 h / Crystal form, after drying at 60 ° C. overnight / Crystal form, after nitrogen purging overnight at room: dihydrochloride; for Physical stability after standing under the four conditions: conditions 1 to 4; for Crystal form, after 40° C./75% RH for one week / Crystal form, after drying at 60 ° C. overnight: open bottle; for Crystal form, after nitrogen purging overnight at room: room temperature
Protocol: The physical stability of polymorph forms P, F and J are studied under the following four different environmental conditions.
10 mg to 15 mg of polymorph forms P, F and J are each weighed and placed in a 1.5 mL glass bottle, and the glass bottle is placed open for one week in a constant temperature and humidity box under the conditions of 40° C. and 75% RH, and then XRPD tests are carried out on the polymorph forms P, F and J to determine whether the crystal forms of the samples change. FIGS. 11 to 13 are XRPD comparative patterns of polymorph forms P, F and J before and after one week of storage at 40° C. and 75% RH, respectively.
10 mg to 15 mg of polymorph forms P, F and J are each weighed and placed in a 1.5 mL glass bottle, and the glass bottle is placed open overnight in a constant temperature drying oven under the condition of 60° C. Then XRPD test is carried out on the polymorph forms P, F and J to determine whether the crystal forms of the samples change. FIGS. 14 to 16 are XRPD comparative patterns of the polymorph forms P, F and J before and after being placed overnight under a drying condition of 60° C., respectively.
10 mg to 15 mg of polymorph forms P, F and J are each weighed and placed in a 1.5 mL glass bottle, and nitrogen is purged for 2 h under the condition of 60° C. in a nitrogen blower, and then XRPD tests are carried out on the polymorph forms P, F and J to determine whether the crystal forms of the samples change. FIGS. 17 to 19 are XRPD comparative patterns of the polymorph forms P, F and J before and after nitrogen purging for 2 h at 60° C., respectively.
10 mg to 15 mg of polymorph forms P, F and J are each weighed and placed in a 3 mL glass bottle, nitrogen is blown overnight at room temperature in a nitrogen blower, and then XRPD tests are carried out on the polymorph forms P, F and J to determine whether the crystal forms of the samples change. FIGS. 20 to 22 are XRPD comparative patterns of the polymorph forms P, F and J before and after nitrogen purging overnight at room temperature, respectively.
Judging from XRPD comparative patterns of various polymorph forms, the physical stability properties of the polymorph forms P, F and J are obtained, and the results are shown in Table 8.

SPF-grade SD rats = experiment: Forced swimming test; assay type: in vivo; details: for antidepressant effect in forced swimming test (in words): rats, dihydrochloride; for Behavior duration, Static / Behavior duration, Swimming / Behavior duration, Wall climbing / Number of behaviors, Static / Number of behaviors, Swimming / Number of behaviors, Wall climbing: x ± SEM
Protocol: Forced swimming test is used to test the antidepressant effects of polymorph forms P, F, O, B and J.
the swimming test equipment is a transparent glass round cylinder with a height of 46 cm and an inner diameter of 20 cm, the test water temperature is 23° C.˜25° C., the test water depth is 30 cm, and each cylinder is used only once.
(§1) 300 mg of a polymorph form P is weighed with an electronic balance, and the polymorph form P is dissolved with 0.9% normal saline, and finally the volume is fixed to 100 mL with 0.9% normal saline, at this time, the concentration of dihydrochloride in the experimental reagent is 3 mg/mL for later use.
as §1, with “600” for “300”, “6” for “3”
400 mg of desipramine (DMI) is weighed with an electronic balance, DMI is dissolved with 0.9% normal saline, and then the volume is fixed to 100 mL with 0.9% normal saline for later use.
Forty SPF-grade SD rats are prepared and randomly divided into 4 groups, namely vehicle control group, positive control group, experimental group 1 and experimental group 2, with 10 rats in each group. The day before the test, the rats were placed in water for 15 min to pre-swim for 15 min in advance to adapt to the swimming test environment, then taken out and dried, placed in the cage under an infrared lamp for 15 min and then placed in the original cage. After 24 h, a formal swimming test is conducted, that is, the rats are put into water again after 24 h, and the rats are continuously observed for 5 min. The swimming process are needed to be photographed. The drug is administered during two swimming sessions.
The positive control group containing DMI is administered three times, at 23.5 h, 5 h and 1 h before the formal swimming test respectively. Vehicle control group, experimental group 1 and experimental group 2 are each administered only once and subcutaneously within 1 h.
The behaviors of the rats are scored by the scorer every 5 seconds after recording the experiment.
1) Static—when the rat floats on the water surface without struggling and moves only to keep its head above the water surface, the rat is evaluated as static;
2) Swimming—if the rats have obvious swimming behaviors, not only to keep their heads above the water surface, or to travel around in a round cylinder, they are evaluated as swimming;
3) Wall climbing—the rats' front paws have obvious behavior of entering and leaving the water surface, usually, rats are evaluated as wall climbing in front of the round cylinder wall.
All behavioral are scored by a single person. To avoid bias of observation, the scorer only observed and scored without knowing the administration situations. Then multiple test fragments are randomly selected, and the scorer will score the second round to determine the accuracy of observation. The test video is scored again by the second scorer to determine the accuracy between scorers. The second scorer are also required to observe without knowing the drug administration. Finally, in order to determine the effectiveness of the method, the first scorer scored again and recorded the duration of various behaviors with a stopwatch.
SPSSwin11.0 software is used for variance analysis. One-way variance analysis is used for homogeneity of variance, and Dunnett test is used for heterogeneity of variance.

[2] = Dynamic moisture adsorption; assay type: physicochemical
Rough solubility test = assay type: physicochemical; details: water, thermodynamic from solid
Protocol: 2.0 mg of a free base and 2.0 mg of polymorph forms B, F, P, J and O are respectively taken and placed in 3.0 mL glass bottles. Then the solvent methanol is added step by step, and ultrasound is performed to observe whether the sample is completely dissolved. If the sample is still not completely dissolved after 2.0 mL of solvent is added, the test is stopped to measure the rough solubility of the free base, polymorph forms B, F, P, J and O in methanol respectively.
Using the same method, the rough solubility of the free base, polymorph forms B, P, F, J and O in other organic solvents or water listed in Table 6 are determined respectively.

[3] = Experiment group 1, 30 mg/kg Sc once
[4] = Experiment group 2, 60 mg/kg Sc once

In the case of CC1CCN(C(=O)c2ccc([C@H](c3cccc(O)c3)N3C[C@@H](C)N(Cc4cccc(F)c4)C[C@@H]3C)cc2)CC1 [Polymorph form F, (4-((R)-((2S,5R)-4-(3-fluorobenzyl)-(2,5-dimethylpiperazine-1-yl)(3-hydroxyphenyl)methyl)phenyl)(4-methylpiperidine-1-yl)methanone dihydrochloride], the “Crystal form, after nitrogen purging at 60° C. for 2 h” value [1] was “invariability”, the “Physical stability after standing under the four conditions” value [1] was “good stability” and the “Crystal form, after 40° C./75% RH for one week” value [1] was “invariability”. For the same molecule, the “Crystal form, after drying at 60 ° C. overnight” value [1] was “invariability”, the “Crystal form, after nitrogen purging overnight at room” value [1] was “invariability” and the “antidepressant effect in forced swimming test (in words)” value (“antidepressant effect” below) (SPF-grade SD rats) was “effectively reduce the static times and duration of forced swimming in rats”.

With CC1CCN(C(=O)c2ccc([C@H](c3cccc(O)c3)N3C[C@@H](C)N(Cc4cccc(F)c4)C[C@@H]3C)cc2)CC1 [Polymorph form J, (4-((R)-((2S,5R)-4-(3-fluorobenzyl)-(2,5-dimethylpiperazine-1-yl)(3-hydroxyphenyl)methyl)phenyl)(4-methylpiperidine-1-yl)methanone dihydrochloride] the “Crystal form, after 40° C./75% RH for one week” value [1] was “invariability” and the “antidepressant effect” value (SPF-grade SD rats) was “effectively reduce the static times and duration of forced swimming in rats”.

In the case of CC1CCN(C(=O)c2ccc([C@H](c3cccc(O)c3)N3C[C@@H](C)N(Cc4cccc(F)c4)C[C@@H]3C)cc2)CC1 [Polymorph form O, (4-((R)-((2S,5R)-4-(3-fluorobenzyl)-(2,5-dimethylpiperazine-1-yl)(3-hydroxyphenyl)methyl)phenyl)(4-methylpiperidine-1-yl)methanone dihydrochloride], the “Crystal form change under dynamic moisture adsorption” value [2] was “change into amorphous” and the “antidepressant effect” value (SPF-grade SD rats) was “effectively reduce the static times and duration of forced swimming in rats”.

In the case of CC1CCN(C(=O)c2ccc([C@H](c3cccc(O)c3)N3C[C@@H](C)N(Cc4cccc(F)c4)C[C@@H]3C)cc2)CC1 [Polymorph form P, (4-((R)-((2S,5R)-4-(3-fluorobenzyl)-(2,5-dimethylpiperazine-1-yl)(3-hydroxyphenyl)methyl)phenyl)(4-methylpiperidine-1-yl)methanone dihydrochloride], the “Crystal form, after nitrogen purging at 60° C. for 2 h” value [1] was “invariability”, the “Physical stability after standing under the four conditions” value [1] was “good stability” and the “Crystal form, after 40° C./75% RH for one week” value [1] was “invariability”. The “Crystal form, after drying at 60 ° C. overnight” value [1] was “invariability”, the “Crystal form, after nitrogen purging overnight at room” value [1] was “invariability” and the “Behavior duration, Static” value (SPF-grade SD rats; [3]) was 45.5 ± 7.5 s. For the same molecule, the “Behavior duration, Swimming” value (SPF-grade SD rats; [3]) was 142.5 ± 21.5 s, the “Behavior duration, Wall climbing” value (SPF-grade SD rats; [3]) was 114.0 ± 19.0 s and the “Number of behaviors, Static” value (SPF-grade SD rats; [3]) was 9.1 ± 1.5 times. The “Number of behaviors, Swimming” value (SPF-grade SD rats; [3]) was 28.5 ± 4.3 times, the “Number of behaviors, Wall climbing” value (SPF-grade SD rats; [3]) was 22.8 ± 3.8 times and the “Behavior duration, Static” value (SPF-grade SD rats; [4]) was 88.5 ± 8.0 s. For the same molecule, the “Behavior duration, Swimming” value (SPF-grade SD rats; [4]) was 122.0 ± 14.0 s, the “Behavior duration, Wall climbing” value (SPF-grade SD rats; [4]) was 91.0 ± 5.5 s and the “Number of behaviors, Static” value (SPF-grade SD rats; [4]) was 17.7 ± 1.6 times. The “Number of behaviors, Swimming” value (SPF-grade SD rats; [4]) was 24.4 ± 2.8 times, the “Number of behaviors, Wall climbing” value (SPF-grade SD rats; [4]) was 18.2 ± 1.1 times and the “antidepressant effect” value (SPF-grade SD rats) was “better antidepressant effect”.

For CC1CCN(C(=O)c2ccc([C@H](c3cccc(O)c3)N3C[C@@H](C)N(Cc4cccc(F)c4)C[C@@H]3C)cc2)CC1 [Polymorph form B, (4-((R)-((2S,5R)-4-(3-fluorobenzyl)-(2,5-dimethylpiperazine-1-yl)(3-hydroxyphenyl)methyl)phenyl)(4-methylpiperidine-1-yl)methanone dihydrochloride], the Solubility (Rough solubility test) was 6400 to 7200 µg/mL, the “Crystal form change under dynamic moisture adsorption” value [2] was “change into amorphous” and the “antidepressant effect” value (SPF-grade SD rats) was “effectively reduce the static times and duration of forced swimming in rats”.
